Values joined by “and” are separate entries in the source; they are usually repeats but may differ in a detail not shown here. Identical values can stand only once. Like-named read-outs stand apart in the source and are kept apart here.
Assays:
[1] = tested on: diarrhea induced by this combination regimen; assay: Antidiarrheal treatment of diarrhea induced by CPT-11 plus cisplatin; format: in vivo, human; details: for response of grade 3 diarrhea to antidiarrheal agent: diarrhea at CPT-11 90 mg m-2 plus cisplatin 60 mg m-2
Method: (§1) All subjects gave written informed consent to the study. […] No intrapatient dose escalation was performed. […] Bone marrow aspiration was also performed in SCLC patients. […] Arrows indicate the com- pletion of infusion.

[2] = tested on: patients with advanced lung cancer
Excerpt: All subjects gave written informed consent to the study. […] The study was approved in advance by this hospital's Institu- tional Review Board. […] Patients who stabilised or improved received at least a second course while patients with obvious evidence of disease progression were removed from the study. Before the next course was started, the leukocyte count had to be at least 4,000fil-', and the platelet count had to be at least 100,00011-. If more than 6 weeks passed from the time of the last treatment before these criteria were satisfied, the patients were removed from the study. No intrapatient dose escalation was performed. Once the maximum tolerated dose was reached (90 mg m-2), five additional patients were treated at the preceding dose level of 80mgm2. Evaluation The stage of disease was determined by a complete medical history and physical examination, routine chest radiography, whole-lung tomography, bone scintiscanning, computed tomography of the head, chest, and abdomen, and fiberoptic bronchoscopy. Bone marrow aspiration was also performed in SCLC patients. […] Prior to the first course of treatment, a complete blood count (includ- ing a differential white cell count and platelet count), biochemistry tests (renal and hepatic function, and elec- trolytes), and urinalysis were performed. Then the blood count, biochemistry tests, urinalysis, and chest X-rays were repeated at least once a week after this initial evaluation. Other investigations were repeated as necessary to evaluate marker lesions. After the completion of chemotherapy, each patient was restaged with all the tests used during the initial work-up. The eligibility, evaluability and response of each patient were assessed by extramural reviewers. […] The duration of each response was defined as the number of days from the documentation of response until tumour progression. ECOG common toxicity criteria were used to grade organ damage. The maximum tolerated dose was defined as the dose causing grade 3-4 nonhematologic toxicity (except nausea and vomiting) in at least one-third of the cycles and/or grade 3-4 hematologic toxicity in at least two-third of the cycles included at that level. […] The statistical significance of differ- ences in peak plasma concentrations (Cmax) was determined using unpaired, two-tailed Student's t test. Other statistical analysis was performed using Chi-square test or Fisher's exact test. A P value of less than 0.05 was considered to be statistically significant.

[3] = Plasma pharmacokinetics of CPT-11 and SN-38 (HPLC), day 8 of first cycle
Method: as §1

advanced lung cancer = assay: Tumour response (World Health Organization criteria) to CPT-11 plus cisplatin; format: in vivo, human
Method: as §1

[4] = tested on: patients with advanced NSCLC; details: ref Masuda et al., 1992b, cited from earlier work
[5] = ref Negoro et al., 1991a, cited from earlier work; for AUC of CPT-11: single agent weekly infusion
[6] = CPT-11 60 mg m-2 plus cisplatin 60 mg m-2, 3 patients
[7] = CPT-11 80 mg m-2 plus cisplatin 60 mg m-2
[8] = CPT-11 80 mg m-2 plus cisplatin 60 mg m-2, 8 patients
[9] = CPT-11 90 mg m-2 plus cisplatin 60 mg m-2
[10] = CPT-11 plus cisplatin 60 mg m-2, 28-day cycle
[11] = all dose levels, CPT-11 plus cisplatin 60 mg m-2
[12] = dose level 1 (CPT-11 60 mg m-2), individual responders
[13] = dose level 2 (CPT-11 80 mg m-2)
[14] = dose level 3 (CPT-11 90 mg m-2), one responder

COc1ccc2c3c1O[C@H]1[C@@H](O)C=C[C@H]4[C@@H](C2)N(C)CC[C@@]341 [codeine phosphate]
response of grade 3 diarrhea to antidiarrheal agent [1]: resistant

CN1[C@@H]2CC[C@H]1C[C@@H](OC(=O)C(CO)c1ccccc1)C2 (stereo partly drawn) [atropine]
response of grade 3 diarrhea to antidiarrheal agent [1]: refractory

albumin tannate
response of grade 3 diarrhea to antidiarrheal agent [1]: refractory

CN1[C@@H]2C[C@@H](OC(=O)[C@H](CO)c3ccccc3)C[C@H]1[C@@H]1O[C@@H]12 [scopolamine]
response of grade 3 diarrhea to antidiarrheal agent [1]: refractory

sandostatin
effect on grade 3 diarrhea induced by CPT-11 plus cisplatin ([1]; 50-100 ug subcutaneously t.i.d. for at least 2 days, three patients): ineffective

CCc1c2c(nc3ccc(OC(=O)N4CCC(N5CCCCC5)CC4)cc13)-c1cc3c(c(=O)n1C2)COC(=O)[C@]3(O)CC [CPT-11, Irinotecan]
Grade 3 leukopenia, percentage of courses ([2]; CPT-11 60 mg m-2 plus cisplatin 60 mg m-2): 33%
ECOG grade 3 or 4 diarrhea: number of patients exhibiting toxicity in the first course [2, 6]: 0
ECOG grade 3 or 4 leukopenia: number of patients exhibiting toxicity in the first course [2, 6]: 2
ECOG grade 3 or 4 diarrhea: no. of courses exhibiting toxicity in all courses ([2]; CPT-11 60 mg m-2 plus cisplatin 60 mg m-2, 9 courses): 0
Grade 3 leukopenia, percentage of courses [2, 7]: 15%
grade 4 diarrhea [2, 7]: no grade 4 diarrhea
ECOG grade 3 or 4 diarrhea: number of patients exhibiting toxicity in the first course [2, 8]: 2
ECOG grade 3 or 4 leukopenia: number of patients exhibiting toxicity in the first course [2, 8]: 2
ECOG grade 3 or 4 diarrhea: no. of courses exhibiting toxicity in all courses ([2]; CPT-11 80 mg m-2 plus cisplatin 60 mg m-2, 20 courses): 3
skin rash (grade 1), number of patients ([2]; CPT-11 80 mg m-2 plus cisplatin 60 mg m-2, forced cessation of CPT-11 on day 15): one
grade 3 diarrhea, percentage of cycles ([2]; CPT-11 80 mg m-2 plus cisplatin 60 mg m-2, three of 20 cycles): 15%
grade 3 diarrhea, percentage of patients ([2]; CPT-11 80 mg m-2 plus cisplatin 60 mg m-2, two of eight patients): 25%
dose-limiting toxicity ([2]; CPT-11 90 mg m-2 dose level plus cisplatin 60 mg m-2): diarrhea
Grade 3 leukopenia, percentage of courses [2, 9]: 0%
duration of grade 3 diarrhea [2, 9]: 2 to 3 weeks
grade 4 diarrhea [2, 9]: no grade 4 diarrhea
ECOG grade 3 or 4 leukopenia: number of patients exhibiting toxicity in the first course ([2]; CPT-11 90 mg m-2 plus cisplatin 60 mg m-2, 3 patients): 0
maximum tolerated dose of CPT-11 ([2]; CPT-11 i.v. days 1, 8, 15 plus cisplatin 60 mg m-2 day 1, every 28 days): 90 mg m-2
leukocyte nadir [2, 10]: ~21 days
recovery from leukocyte nadir in most patients [2, 10]: ≤ 29 days
recommended dose for Phase II studies ([2]; CPT-11 days 1, 8, 15 plus cisplatin day 1 at 4-week intervals): 80 mg m-2
Grade 3 leukopenia, number of patients ([2]; all dose levels, CPT-11 60-90 mg m-2 plus cisplatin 60 mg m-2, 14 patients): five
Grade 3 leukopenia, number of cycles ([2]; all dose levels, CPT-11 60-90 mg m-2 plus cisplatin 60 mg m-2, 33 courses): six
Hematologic toxicity [2, 11]: relatively mild
grade 4 leukopenia, patients [2, 11]: none
hepatic, renal, or pulmonary toxicity [2, 11]: no evidence
Grade 3 nausea and vomiting, percentage of courses ([2]; all dose levels, 10 of 33 courses): 30%
Grade 2 alopecia, percentage of courses ([2]; all dose levels, 15 of 33 courses): 45%
Transient eosinophilia ( > 10%), percentage of courses ([2]; all dose levels, seven of 33 courses): 21%
Grade 3 anaemia, percentage of courses ([2]; all dose levels, two occasions in 33 courses): 6%
Elimination of CPT-11 from plasma ([3]; after completion of infusion, two-compartment model): biphasic
patients showing disease progression (advanced lung cancer; all 14 patients): none
patients showing no change (advanced lung cancer; all 14 patients): Eight
overall response rate (advanced lung cancer; all 14 patients, CPT-11 60-90 mg m-2 plus cisplatin 60 mg m-2): 43%
Response duration (advanced lung cancer; [12]): 85 days and 170 days
Time to remission (advanced lung cancer; [12]): 42 days and 44 days
No. of responders (%), response rate (advanced lung cancer; dose level 1: CPT-11 60 mg m-2 plus cisplatin 60 mg m-2, two of three patients): 67%
Response duration, median (range) (advanced lung cancer; [13]): 158 (92-208) days
Time to remission, median (range) (advanced lung cancer; [13]): 41 (30-42) days
No. of responders (%), response rate (advanced lung cancer; dose level 2: CPT-11 80 mg m-2 plus cisplatin 60 mg m-2, three of eight patients): 38%
Response duration (advanced lung cancer; [14]): 98 days
Time to remission (advanced lung cancer; [14]): 30 days
No. of responders (%), response rate (advanced lung cancer; dose level 3: CPT-11 90 mg m-2 plus cisplatin 60 mg m-2, one of three patients): 33%
partial responses (advanced lung cancer; five of 14 patients): 36%
response rate for NSCLC (advanced lung cancer; four of 12 patients): 33%
complete response (advanced lung cancer; one of 14 patients): 7%
complete response, stage IIIB disease (advanced lung cancer; one of seven patients): 14%
overall response rate, stage IIIB disease (advanced lung cancer; seven patients): 43%
partial response, stage IV disease (advanced lung cancer; three of seven patients): 43%
Response duration, median (range) (advanced lung cancer; total, all dose levels): 128 (85-208) days
Time to remission, median (range) (advanced lung cancer; total, all dose levels): 42 (30-44) days
partial responses, stage IIIB disease (advanced lung cancer; two of seven patients): 29%
response rate for SCLC (advanced lung cancer; two of two patients): 100%
response rate ([4]; CPT-11 days 1, 8, 15 combined with 80 mg m-2 cisplatin day 1, 4-week intervals, advanced NSCLC): 54%
dose-limiting toxicities ([4]; combined with 80 mg m-2 cisplatin): leukopenia and diarrhea
recommended dose of CPT-11 ([4]; in combination with 80 mg m-2 of cisplatin, days 1, 8, 15): 60 mg m-2
AUC of CPT-11 ([5]; 50 mg m-2): 2.97 ytg ml-' x hours
AUC of CPT-11 ([5]; 100 mg m-2): 6.37 ytg ml-' x hours
AUC of CPT-11 ([5]; 125 mg m-2): 9.17 ytg ml-' x hours
AUC of CPT-11 ([5]; 150 mg m-2): 11.29 ytg ml-' x hours
dose intensity achieved as a single agent ([5]; weekly intravenous infusion): 100 mg m-2 per week

CCc1c2c(nc3ccc(O)cc13)-c1cc3c(c(=O)n1C2)COC(=O)[C@]3(O)CC [SN-38, 7-ethyl-10-hydroxycamptothecin]
AUC ([3]; human, in vivo, 80 mg): 216 ng·h/mL
AUC ([3]; human, in vivo, 90 mg): 340 ng·h/mL
SN-38 terminal half-life, mean (s.d.) ([3]; human, in vivo, 90 mg): 22.13 ? 13.28 h
half-life ([3]; human, in vivo, 90 mg): 22.1 ± 13.3 h
AUC of SN-38 ([5]; single-agent CPT-11 50 mg m-2): 117 ng ml-1 x hours
AUC of SN-38 ([5]; single-agent CPT-11 125 mg m-2): 252 ng ml-1 x hours

— PMC1968602 (British Journal of Cancer, 1993)
